Test results as given in patent US20080138284A1, “Novel Peptides That Promote Lipid Efflux” (Lipid Sciences, Inc., priority 2006, published 2008).

How the values were obtained:
[1] = tested on: HeLa cells stably transfected with human ABCA1 cDNA (ABCA1 cells); conditions: as previously described (Hamon et al.; Remaley et al.); cited from earlier work
[2] = tested on: HeLa cells transfected with only a hygromycin-resistant control plasmid (control cells); test: Cholesterol and phospholipid efflux from control HeLa cells (incl. time course); type: cell-based, human; conditions: 30 hour efflux period
Description: (§1) HeLa cells stably transfected with human ABCA1 cDNA (ABCA1 cells) and HeLa cells transfected with only a hygromycin-resistant control plasmid (control cells) are produced and grown in α-modified Eagle's medium (aMEM) plus 10% fetal calf serum, as described by Remaley et al. (Biochem. Biophys. Res. Commun. 280:818-823, 2001). Cholesterol and phospholipid efflux is performed for 18 hours on noncholesterol-loaded cells radiolabeled with either cholesterol or choline (Remaley et al., Arterioscler. Thromb. Vasc. Biol. 17:1813-1821, 1997). Percentage efflux is calculated after subtracting the radioactive counts in the blank media (aMEM plus 1 mg/ml of BSA), and expressed as the percent of total radioactive counts removed from the cells during the efflux period.
(§2) ABCA1 cells are used to assess the ability of apoA-I and synthetic peptides to efflux lipid from cells. […] The peptides of the present invention efflux approximately 2- to 4-fold more cholesterol and phospholipid from ABCA1 cells than from control cells. Both the peptides of the present invention and apoA-I began to show saturation for lipid efflux at approximately the same protein concentration of 10 μg/ml.
Cholesterol efflux from ABCA1 cells to apoA-I is first detectable after 2 hours and increases throughout the 30 hour efflux period. […] Overall, the kinetics for cholesterol efflux to peptides of the present invention from ABCA1 cells is similar to that of apoA-I, except that cholesterol efflux is first detectable after 30 minutes.

[3] = tested on: HeLa cells transfected with only a hygromycin-resistant control plasmid (control cells); conditions: as previously described (Hamon et al.; Remaley et al.); cited from earlier work
CD11b = CD11b expression in stimulated monocytes by flow cytometry; type: cell-based; conditions: human monocytes, 1 μmol/L PMA, 20 μg/ml apoA-1 or peptide
Description: Monocyte Isolation Peripheral whole blood (PWB) is drawn from healthy consenting individuals into syringes containing sodium citrate (final concentration—19.2 mM). Resting human monocytes are isolated from PWB by density centrifugation with Lymphoprep (Axis Shield). Mononuclear cells (MNCs) are collected and monocytes are further separated to purity using the Dynal negative isolation kit (Invitrogen). Monocytes are resuspended in phosphate buffered saline (PBS) and cell number is determined counting cell suspension on an automated hematology analyzer (Sysmex, KX-21N, USA). Purification of HDL and apoA-1 Human plasma apoA-1 is isolated as previously described and the purity determined using total mass spectrometry. Flow Cytometry 100 μL of monocytes are stimulated with either 1 μmol/L phorbol-myristate-acetate (PMA) or 1 μg/ml lipopolysaccharide (LPS) (Sigma, Australia) in the presence or absence of apoA-1 (20 μg/ml), or 20 μg/ml of the test peptides of the present invention. SEQ ID NOs: 72, 80, 89, 354, 355 and 372 are also tested individually. The cells are incubated with the FITC conjugated antibody to either the active epitope of CD11b (eBiosciences, USA, Clone CBRM1/5) or total CD11b (Serotec, USA, Clone ICRF44) for 15 min at 37° C. Cells are then fixed with 4% paraformaldehyde. Samples are controlled for by using the appropriately matched isotype matched negative control (FITC-anti-mouse IgG) (Serotec, USA, Clone W3/25). CD11b expression is measured by flow cytometry using FACS Calibur (Becton Dickinson). Analysis is conducted using the Cell Quest Pro software. Statistical Analysis Values are presented as the mean ±SD or percentage of control ±SD. FACS results are analyzed for statistical significance using one-way ANOVA followed by Bonferroni post-hoc test. Significance is accepted at P<0.05. […] The combined effects of increasing cholesterol efflux and decreasing inflammation indicate that the peptides of the present invention effectively mimic the function of Apo AI and will decrease atherosclerosis.

[4] = tested on: HeLa cells stably transfected with human ABCA1 cDNA (ABCA1 cells); test: Cholesterol and phospholipid efflux from ABCA1-transfected HeLa cells (incl. time course); type: cell-based
Description: as §1, §2
Cholesterol efflux from ABCA1 cells to apoA-I is first detectable after 2 hours and increases throughout the 30 hour efflux period. […]

[5] = tested on: J774 mouse macrophage cells (ABCA1); test: ABCA1 mediated cholesterol efflux; type: cell-based; conditions: samples minus blank, Apo A-I @ 20 μg/ml
Excerpt: (§3) The methods employed in this study have been described in U.S. Pat. Nos. 7,029,863, 7,060,452, U.S. Patent Application Publication No. 2005/0191715, and in Moya et al., Arteriosclerosis & Thrombosis 1994:14:1056-1065 and Liu et al., J. Biol. Chem., 2003:278(44), 42976-42984. SR-B1 mediated cholesterol efflux is examined in FU5AH rat hepatoma cells and ABCA1 mediated cholesterol efflux is examined in J774 mouse macrophage cells as described in these references.

[6] = tested on: FU5AH rat hepatoma cells (SR-B1); test: SR-B1 mediated cholesterol efflux; type: cell-based; conditions: samples minus blank; Apo A-I @ 20 μg/ml
Excerpt: as §3

## apolipoprotein A-I [Apo A-I, reference compound]
[1]
  efflux of cholesterol and phospholipid to apoA-I after transfection with ABCA1: do so after transfection with ABCA1
[2]
  cholesterol efflux to apoA-I from control cells, time course: no significant increase above background
[3]
  efflux of cholesterol and phospholipid to apoA-I from control cells: do not efflux significant amounts
CD11b
  PMA induced CD11b expression: significantly reduce
[4]
  protein concentration at which lipid efflux begins to show saturation: ~10 µg/mL
[4]; 30 hour efflux period
  time after which cholesterol efflux from ABCA1 cells is first detectable: 2 h
[5]
  +ABCA1 Cells (efflux): 20.682 + 0.724
  −ABCA1 Cells (efflux): 1.713 ± 0.409
[5]; equals +ABCA1 minus −ABCA1 cells
  ABCA1 Mediated Efflux: 18.97 % Per 4 h
[6]
  SR-BI Mediated Efflux: 0.26 % Per 4 h
